Data taken from paper PMC8003416, “Modulation of Human Phenylalanine Hydroxylase by 3-Hydroxyquinolin-2(1H)-One Derivatives” (Biomolecules, 2021).

Key:
trypsin = assay: Trypsin activity control with Z-Gly-Gly-Arg-AMC; type: biochemical; settings: 100 μM compound; for relative (residual) trypsin activity: 1% DMSO control = 100%; for Trypsin Abs/min: control 512 ± 11
Method: To rule out compounds that inhibit/inactivate trypsin, changes in the cleavage rate of N-(Benzyloxy)carbonyl-glycylglycylarginyl-7-amido-4-methylcoumarin (Z–Gly–Gly–Arg–AMC; Bachem, Bubendorf, Switzerland), a synthetic substrate of trypsin, were monitored by fluorimetric measurements in a microplate reader (FLUOstar Omega; BMGLabtech, Ortenberg, Germany). The assays (n = 3) were performed in a 96-well plate, in SEC buffer and in a final volume of 200 μL containing 1.5 μg/mL of trypsin, 50 μM of Z–Gly–Gly–Arg–AMC and 100 μM of 3HQs derivatives. Fluorescence was measured in real-time, with λexc 360 nm and λem 460 nm, during 30 min at 25 °C. Controls were performed using substrate alone with 1% DMSO (negative control) and trypsin with no compounds and 1% DMSO (positive control).

[1] = target: T1, hPAH transiently expressed in HEK-293T cells (Homo sapiens, UniProt P00439); assay: hPAH activity and protein level in transfected HEK-293T cells; type: cell-based; settings: 24 h; for hPAH protein content after translation block / increase in hPAH expression (protein level): 50 μM; for hPAH protein content after translation block: then 10 μg/mL puromycin, 1, 3, 6 h; for increase in hPAH expression (protein level): western blot normalized to GAPDH; for hPAH activity in cell lysate: 50 and 100 μM, vs DMSO
T1 construct: expressed in transfected cells; host or cells: HEK-293T (ATCC CRL-11268)
T1 sequence (P00439 1-452): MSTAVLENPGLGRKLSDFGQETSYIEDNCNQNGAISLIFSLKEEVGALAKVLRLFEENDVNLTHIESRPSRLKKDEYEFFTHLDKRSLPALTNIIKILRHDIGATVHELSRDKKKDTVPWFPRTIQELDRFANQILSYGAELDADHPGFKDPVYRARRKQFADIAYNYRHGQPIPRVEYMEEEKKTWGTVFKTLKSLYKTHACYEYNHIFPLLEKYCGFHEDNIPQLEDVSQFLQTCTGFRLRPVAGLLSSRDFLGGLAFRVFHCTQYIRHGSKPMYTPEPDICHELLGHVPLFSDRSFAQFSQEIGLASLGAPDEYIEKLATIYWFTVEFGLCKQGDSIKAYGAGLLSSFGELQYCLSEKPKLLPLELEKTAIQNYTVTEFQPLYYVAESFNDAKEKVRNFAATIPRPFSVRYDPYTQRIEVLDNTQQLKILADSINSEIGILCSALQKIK
Method: HEK-293T cells (ATCC CRL-11268) were grown in RPMI 1640 medium (Gibco Life Technologies¸ Carlsbad, CA, USA) and supplemented with heat inactivated (60 °C for 30 min) fetal bovine serum (10%; v/v), penicillin (100 U/mL) and streptomycin (0.1 mg/mL) at 37 °C, in 5% CO2 in a humidified atmosphere. 1 × 10^5 cells were transfected with 750 ng of DNA (eukaryotic vector expressing hPAH; pEF-DEST51-PAH-WT) using lipofectamine (Invitrogen) as the transfection agent. Compounds (50 and 100 μM) or DMSO (0.5 and 1%) were added 4 h after transfection, and cells were further incubated for 24 h. For sample collection cells were trypsinized with 500 μL of TripLE Express (Gibco Life Technologies), centrifuged at 200× g for 5 min, at 4 °C, and washed with PBS. The pellet was resuspended in 50 μL of PBS with 200 μM PMSF and cells were disrupted by passage (≈20×) through a fine needle. The cell debris were removed by centrifugation at 14,000× g for 5 min at 4 °C and the obtained cell lysates were used for enzymatic activity assays and western blot analysis. Three independent cell cultures were performed.
For the stability assays, after 24 h incubation with compounds, protein translation was stopped by the addition of 10 μg/mL puromycin (Sigma-Aldrich). Cells were collected at 0, 1, 3, and 6 h after blockage of translation. Two independent cell cultures were performed.
The hPAH activity of cell lysates was measured essentially as described in [26] in a final volume of 200 μL containing 1 mM L-Phe, 250 mM Na-Hepes, pH 7, 0.1 mg/mL catalase and 20 μL of cell lysate. After 4 min of pre-incubation, 100 μM (NH4)2Fe(II)SO4 was added to the mixture. Two min after ferrous ammonium sulphate addition, the reaction was initiated by the injection of BH4 (75 μM). Tyrosine production was assessed by measuring the increase in fluorescence intensity (λexc 274 nm and λem 304 nm) in a FLUOstar Omega microplate reader (BMG Labtech), at 25 °C, during 30 min. Enzyme activity was determined as the amount of L-Tyr produced per min per mg of total protein. For each cell culture enzymatic assays were performed in triplicate.
For western blot analysis of cell lysates, 4 μg of total protein were applied on an 8 to 16% mini-protean TGX precast polyacrylamide gel (Bio-Rad), and the proteins were transferred to a polyvinylidene fluoride (PVDF; GE Healthcare) membrane and visualized by immunodetection using mouse anti-PAH (MAB 5278; Millipore; Burlington, MA, USA) and mouse anti-glyceraldehyde 3-phosphate dehydrogenase (GAPDH (loading control); sc-365062, Santa Cruz Biotechnology; Dallas, TX, USA) as the primary antibodies and the anti-mouse IgG-HRP (W402B, Promega; Madison, WI, USA) as the secondary antibody. Immunoblots were developed with enhanced chemiluminescent agents (ECL Prime; GE Healthcare) and the images were acquired in a charge-coupled device imager ChemiDoc XRS (Bio-Rad) using the Quantity One software (Bio-Rad).

| SMILES | relative (residual) trypsin activity (trypsin) [%] | Trypsin Abs/min (trypsin) [Abs/min] | hPAH protein content after translation block [1] | increase in hPAH expression (protein level) [1] | hPAH activity in cell lysate [1] |
| --- | --- | --- | --- | --- | --- |
| COC(=O)CNC(=O)c1c(O)c(=O)[nH]c2ccc(OC(F)(F)F)cc12 [Compound 11] | 92 | 470 ± 11 | hPAH protein content is maintained as a function of time | did not affect the hPAH protein levels | higher activity |
| COC(=O)CC[C@H](NC(=O)c1c(O)c(=O)[nH]c2ccc(OC(F)(F)F)cc12)C(=O)OC [Compound 9] | 71 | 362 ± 9 | hPAH protein content is maintained as a function of time | 1.8 fold | higher activity |
| O=C(NCCc1ccccc1)c1c(O)c(=O)[nH]c2ccc(OC(F)(F)F)cc12 [Compound 8] | 62 | 319 ± 7 |  |  |  |
| CCOC(=O)[C@H](Cc1ccccc1)NC(=O)c1c(O)c(=O)[nH]c2ccc(OC(F)(F)F)cc12 [Compound 3] | 79 | 403 ± 12 |  |  |  |
